Measured values taken from patent US6479531B1, “Gastrin and cholecystokinin receptor ligands” (James Black Foundation Limited, priority 1998, dated 2002).

Each compound was assayed against T1, CCKB receptor (Mus musculus, UniProt P56481) (assay: CCKB receptor radioligand binding assay in mouse cortical membranes). Details: [125I]-CCK8(S) 200 pM, 150 min at 21±3°, read-out: CCKB pKi (converted).
T1 construct: The whole brains from male mice (CD1 22-25 g; Charles River) were removed; from tissue; host or cells: cerebral cortex membranes of male CD1 mice
T1 sequence (P56481 1-453): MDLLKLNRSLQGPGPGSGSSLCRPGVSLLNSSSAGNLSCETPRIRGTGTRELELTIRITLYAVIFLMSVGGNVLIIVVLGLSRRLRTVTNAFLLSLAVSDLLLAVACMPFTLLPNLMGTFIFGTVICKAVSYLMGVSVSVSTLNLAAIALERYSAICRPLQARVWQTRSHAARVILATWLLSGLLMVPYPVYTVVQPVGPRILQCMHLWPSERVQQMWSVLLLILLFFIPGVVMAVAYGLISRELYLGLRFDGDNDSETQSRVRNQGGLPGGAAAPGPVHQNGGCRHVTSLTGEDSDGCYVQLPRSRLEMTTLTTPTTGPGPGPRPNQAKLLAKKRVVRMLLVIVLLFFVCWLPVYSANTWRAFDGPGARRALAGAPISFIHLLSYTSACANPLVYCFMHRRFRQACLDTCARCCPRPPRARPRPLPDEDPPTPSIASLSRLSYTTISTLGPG
Protocol: The compounds of the examples were tested for binding at the CCKB receptor in mouse cortical membranes by means of a radioligand binding assay. The procedure was as follows:
The whole brains from male mice (CD1 22-25 g; Charles River) were removed and placed in ice-cold buffer (pH 7.2 @ 21±3°) of the following composition (mM); 10 HEPES, 130 NaCl, 4.7 KCl, 5 MgCl2, 1 EDTA and containing 0.25 gl^−1 bacitracin. The cortex was dissected, weighed and homogenised in 40 ml ice-cold buffer using a Teflon-in-glass homogeniser. The homogenate was centrifuged at 39800 g for 20 min […], the supernatant discarded and the pellet resuspended by homogenisation in fresh buffer. The homogenate was recentrifuged (39800 g, 20 min @ 4°) and the final pellet was resuspended in HEPES buffer to give a tissue concentration of 20 mg ml^−1 (original wet weight).
The assay was terminated by rapid filtration through pre-soaked Whatman GF/B filters using a Brandell Cell Harvester. The filters were washed (3×3 ml) with ice-cold 50 mM Tris-HCl (pH 7.4 @ 4° C.) and bound radioactivity determined by counting (1 min) in a gamma-counter.

Ki [nM] | Structure (SMILES)
25.1 | Cc1ccccc1-c1nc(C(=O)Nc2cccc(OCC(=O)O)c2)c(CCC23CC4CC(CC(C4)C2)C3)[nH]1 [Example 98, (3-{[5-(2-Adamantan-1-yl-ethyl)-2-o-tolyl-1H-imidazole-4-carbonyl]-amino}-phenoxy)-acetic Acid]
186 | Cc1ccccc1-c1nc(C(=O)Nc2ccc(CC(=O)O)cc2)c(CCC23CC4CC(CC(C4)C2)C3)[nH]1 [Example 99]
776 | Cc1ccccc1-c1nc(C(=O)NC(C(=O)O)c2ccccc2)c(CCC23CC4CC(CC(C4)C2)C3)[nH]1 (stereo not drawn) [Example 102, {[5-(2-Adamantan-1-yl-ethyl)-2-o-tolyl-1H-imidazole-4-carbonyl]-amino}-phenyl-acetic Acid]
204 | Cc1ccccc1-c1cc(C(=O)Nc2cccc(C(=O)O)c2)c(CCC23CC4CC(CC(C4)C2)C3)[nH]1 [Example 123, 3-{[2-(2-Adamantan-1-yl-ethyl)-5-o-tolyl-1H-pyrrole-3-carbonyl]-amino}-benzoic Acid]
263 | O=C(O)c1cccc(NC(=O)c2nc(-c3cccc4ccccc34)[nH]c2CCC23CC4CC(CC(C4)C2)C3)c1 [Example 145, 3-{[5-(2-Adamantan-1-yl-ethyl)-2-naphthalen-1-yl-1H-imidazole-4-carbonyl]-amino}-benzoic Acid]
5.37 | Cc1ccc(NC(=O)c2nc(-c3c(Cl)cccc3Cl)[nH]c2CCC23CC4CC(CC(C4)C2)C3)cc1C(=O)O [Example 149, 5-{[5-(2-Adamantan-1-yl-ethyl)-2-(2,6-dichlorophenyl)-1H-imidazole-4-carbonyl]-amino}-2-methyl-benzoic Acid]
1450 | Cc1ccccc1-c1nc(C(=O)Nc2cccc(C(=O)O)c2)c(CC23CC4CC(CC(C4)C2)C3)[nH]1 [Example 170, 3-[(5-Adamantan-1-ylmethyl-2-o-tolyl-1H-imidazole-4-carbonyl)-amino]-benzoic Acid]
676 | Cc1ncccc1-c1nc(C(=O)Nc2cccc(C(=O)O)c2)c(CCC23CC4CC(CC(C4)C2)C3)[nH]1 [Example 181, 3-{[5-(2-Adamantan-1-yl-ethyl)-2-(2-methyl-pyridine-3-yl)-1H-imidazole-4-carbonyl]-amino}-benzoic Acid]
7590 | Cc1ccccc1-c1nc(C(=O)Nc2cc(C(=O)O)ccc2Cl)c(CCC23CC4CC(CC(C4)C2)C3)[nH]1 [Example 237, 3-{[5-(2-Adamantan-1-yl-ethyl)-2-o-tolyl-1H-imidazole-4-carbonyl]-amino}-4-chloro-benzoic Acid]
5890 | Cc1ccccc1-c1nc(C(=O)Nc2cc(C(=O)O)ccc2F)c(CCC23CC4CC(CC(C4)C2)C3)[nH]1 [Example 238, 3-{[5-(2-Adamantan-1-yl-ethyl)-2-o-tolyl-1H-imidazole-4-carbonyl]-amino}-4-fluoro-benzoic Acid]
2000 | Cc1ccc(C(=O)O)cc1NC(=O)c1nc(-c2ccccc2C)[nH]c1CCC12CC3CC(CC(C3)C1)C2 [Example 239, 3-{[5-(2-Adamantan-1-yl-ethyl)-2-o-tolyl-1H-imidazole-4-carbonyl]-amino}-4-methyl-benzoic Acid]
26.3 | Cc1ccccc1-c1nc(C(=O)Nc2ccc(C)c(C(=O)O)c2C)c(CCC23CC4CC(CC(C4)C2)C3)[nH]1 [Example 240, 3-{[5-(2-Adamantan-1-yl-ethyl)-2-o-tolyl-1H-imidazole-4-carbonyl]-amino}-2,6-dimethyl-benzoic Acid]
537 | Cc1ccccc1-c1nc(C(=O)Nc2cc(C(=O)O)cc(C(F)(F)F)c2)c(CCC23CC4CC(CC(C4)C2)C3)[nH]1 [Example 243, 3-{[5-(2-Adamantan-1-yl-ethyl)-2-o-tolyl-1H-imidazole-4-carbonyl]-amino}-5-trifluoromethyl-benzoic Acid]

Second part, the compound before the results:

Structure (SMILES) | Ki [nM]
O=C(O)c1cccc(CNC(=O)c2nc(-c3ccccc3)[nH]c2CCC23CC4CC(CC(C4)C2)C3)c1 [Example 85, 3-({[5-(2-Adamantan-1-yl-ethyl)-2-phenyl-1H-imidazole-4-carbonyl]-amino}-methyl)-benzoic Acid] | 479
O=C(O)c1cccc(NC(=O)c2nc(C3CCCCC3)[nH]c2CCc2ccccc2)c1 [Example 88, 3-[(2-Cyclohexyl-5-phenethyl-1H-imidazole-4-carbonyl)-amino]-benzoic Acid] | 6610
Cc1ccccc1-c1nc(C(=O)Nc2cccc(C(=O)O)c2)c(CCC(C)(C)C)[nH]1 [Example 91, 3-{[5-(3,3-Dimethyl-butyl)-2-o-tolyl-1H-imidazole-4-carbonyl]-amino}-benzoic Acid] | 3800
Cc1ccccc1-c1nc(C(=O)N2CCC[C@H]2C(=O)O)c(CCC23CC4CC(CC(C4)C2)C3)[nH]1 [Example 95, (2S)-1-[5-(2-Adamantan-1-yl-ethyl)-2-o-tolyl-1H-imidazole-4-carbonyl]-pyrrolidine-carboxylic Acid] | 2510
Cc1ccccc1-c1nc(C(=O)Nc2cccc(S(=O)(=O)NC(=O)c3ccccc3)c2)c(CCC23CC4CC(CC(C4)C2)C3)[nH]1 [Example 100, 5-(2-Adamantan-1-yl-ethyl)-2-o-tolyl-1H-imidazole-4-carboxylic Acid (3-benzoylsulfamoyl-phenyl)-amide] | 117
Cc1ccccc1-c1nc(C(=O)Nc2cccc(C(=O)NS(=O)(=O)c3ccccc3)c2)c(CCC23CC4CC(CC(C4)C2)C3)[nH]1 [Example 101, 5-(2-Adamantan-1-yl-ethyl)-2-o-tolyl-1H-imidazole-4-carboxylic acid (3-benzenesulfonylaminocarbonyl-phenyl)-amide] | 372
O=C(O)c1cccc(NC(=O)c2nc(C34CC5CC(CC(C5)C3)C4)[nH]c2CCC23CC4CC(CC(C4)C2)C3)c1 [Example 109, 3-{[2-Adamantan-1-yl-5-(2-adamantan-1-yl-ethyl)-1H-imidazole-4-carbonyl]-amino}-benzoic Acid] | 44.7
Cc1ccccc1-c1nc(CCc2cccc(C(=O)O)c2)c(C(=O)NC23CC4CC(CC(C4)C2)C3)[nH]1 [Example 118, 3-{2-[5(Adamantan-1-ylcarbamoyl)-2-o-tolyl-1H-imidazole-4-yl]-ethyl}-benzoic Acid] | 776
Cc1ccccc1-c1nc(CCc2cccc(C(=O)O)c2)c(C(=O)NCC23CC4CC(CC(C4)C2)C3)[nH]1 [Example 119, 3-{2-[5-(Adamantan-1-ylmethylcarbamoyl)-2-o-tolyl-1H-imidazol-4-yl]-ethyl}-benzoic Acid] | 282
Cc1ccccc1-c1nc(C(=O)Nc2cccc(C(=O)O)c2)c(CCC23CC4CC(CC(C4)C2)C3)o1 [Example 120, 3-{[5-(2-Adamanatan-1-yl-ethyl)-2-o-tolyl-oxazole-4-carbonyl]-amino}-benzoic Acid] | 1550
Cc1ccccc1-c1nc(C(=O)Nc2cccc(C(=O)O)c2)c(CCC23CC4CC(CC(C4)C2)C3)s1 [Example 121, 3-{[5-(2-Adamanatan-1-yl-ethyl)-2-o-tolyl-thiazole-4-carbonyl]-amino}-benzoic Acid] | 2400
O=C(O)c1cccc(NC(=O)c2nc(C3CCCCCCCCCCC3)[nH]c2CCC23CC4CC(CC(C4)C2)C3)c1 [Example 127, 3-{[5-(2-Adamantan-1-yl-ethyl)-2-cyclododecyl-1H-imidazole-4-carbonyl]-amino}-benzoic Acid] | 1700
O=C(O)c1cccc(NC(=O)c2nc(C(C3CCCCC3)C3CCCCC3)[nH]c2CCC23CC4CC(CC(C4)C2)C3)c1 [Example 128, 3-{[5-(2-Adamanatan-1-yl-ethyl)-2-dicyclohexylmethyl-1H-imidazole-4-carbonyl]-amino}-benzoic Acid] | 2140
O=C(Nc1cccc(-c2nnn[nH]2)c1)c1nc(C2CCCCC2)[nH]c1CCC12CC3CC(CC(C3)C1)C2 [Example 130] | 9.55
O=C(O)c1cccc(NC(=O)c2nc(-c3cc(Cl)cc(Cl)c3)[nH]c2CCC23CC4CC(CC(C4)C2)C3)c1 [Example 147, 3-{[5-(2-Adamantan-1-yl-ethyl)-2-(3,5-dichlorophenyl)-1H-imidazole-4-carbonyl]-amino}-benzoic Acid] | 912
Cc1ccc(NC(=O)c2c(CCC34CC5CC(CC(C5)C3)C4)nc(-c3ccccc3C)n2C)cc1C(=O)O [Example 162, 5-{[5-(2-Adamantan-1-yl-ethyl)-3-methyl-2-o-tolyl-3H-imidazole-4-carbonyl]-amino}-2-methyl-benzoic Acid] | 1660
O=C(O)c1cccc(NC(=O)c2nc(-c3ccncc3)[nH]c2CCC23CC4CC(CC(C4)C2)C3)c1 [Example 180, 3-{[5-(2-Adamantan-1-yl-ethyl)-2-pyridine-4-yl-1H-imidazole-4-carbonyl]-amino}-benzoic Acid] | 1860
